The values that follow come from patent US9400280B2, “Piperidine derivatives and methods of treating hepatitis B infections” (Novira Therapeutics, Inc., priority 2014, dated 2016).

The target of experiment [1] is HBV C150Bo capsid (core) protein (Hepatitis B virus genotype D subtype adw, UniProt P03147, C107A/C48A/C61A/R150C). The experiment is described as follows: HBV assembly assay (fluorescence quenching in vitro capsid assembly). The class given is biochemical. The note with it: at about 10 μM; 50 mM Hepes pH 7.5, 150 mM NaCl, 1 hour at room temperature.
The subject of experiment [2] is HBV replication in HepG2-2.2.15 cells. The experiment is described as follows: Dot-blot assay (inhibition of HBV replication). The class given is cell-based. The note with it: at 10 μM, six days, reduction in HBV DNA levels. How it is done:
Compounds active in the HBV assembly assay are tested for their activity and toxicity in cellular assay. In the first anti-viral assay, the ability of compounds to inhibit HBV replication in an HBV-producing hepatoma cell line using the dot-blot method is evaluated.
Briefly, confluent monolayers of HepG2-2.2.15 cells are incubated with complete medium containing various concentrations of a test compound. Three days later, the culture medium is replaced with fresh medium containing the appropriately diluted test compound. Six days following the initial administration of the test compound, the cell culture supernatant is collected, and cell lysis is performed. The samples are applied onto Nylos membranes and DNA is immobilized to the membrane by UV cross-linking. After pre-hybridization, the HBV probe is added and the hybridization is performed overnight. The membranes are exposed to the Kodak films; antiviral activity is calculated from the reduction in HBV DNA levels (EC50). The EC50 for antiviral activity is calculated from the dose response curves of active compounds. Assay performance over time is monitored by the use of the standard positive control compounds ETV, BAY 41-4109, and HAP-1.
Selected compounds were tested for their activity and toxicity in cellular assay. In the first anti-viral assay, the ability of compounds to inhibit HBV replication in an HBV-producing hepatoma cell line using the dot-blot method was evaluated.
Confluent monolayers of HepG2-2.2.15 cells were incubated with complete medium containing various concentrations of a test compound. Three days later, the culture medium was replaced with fresh medium containing the appropriately diluted test compound. Six days following the initial administration of the test compound, the cell culture supernatant was collected, and cell lysis was performed. The samples were applied onto Nylos membranes and DNA was immobilized to the membrane by UV cross-linking. After pre-hybridization, the HBV probe was added and the hybridization was performed overnight. The membranes were exposed to the Kodak films; antiviral activity was calculated from the reduction in HBV DNA levels (EC50). The EC50 for antiviral activity was calculated from the dose response curves of active compounds. Assay performance over time was monitored by the use of the standard positive control compounds ETV, BAY 41-4109, and HAP-1.

SMILES strings stand for the structures.

Sequence of HBV C150Bo capsid (core) protein (P03147 1-150 C48A/C61A/C107A/R150C): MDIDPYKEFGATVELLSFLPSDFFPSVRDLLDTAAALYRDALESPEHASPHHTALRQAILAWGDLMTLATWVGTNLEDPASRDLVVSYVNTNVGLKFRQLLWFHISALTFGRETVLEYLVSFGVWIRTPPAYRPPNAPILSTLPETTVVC

`O=C(Nc1cc(F)c(F)c(F)c1)c1ccc(F)c(S(=O)(=O)N2CCC(O)C(F)(F)C2)c1` (stereo not drawn) [Compound 1732]: the “Activity (HBV assembly assay)” value in experiment [1] was “+ (‘+’ indicates >50% activity at about 10 (μM))”. For the same molecule, in experiment [2], the Activity in dot-blot-assay result is recorded as “+ (‘+’ indicates >50% activity at 10 (μM))”. Turning to `O=C(Nc1ccc(F)c(F)c1)c1ccc(F)c(S(=O)(=O)N2CCC(O)C(F)(F)C2)c1` (stereo not drawn) [Compound 1733], the “Activity (HBV assembly assay)” value in experiment [1] is given as “+ (‘+’ indicates >50% activity at about 10 (μM))”. Moreover, the Activity in dot-blot-assay entry in experiment [2] is recorded as “+ (‘+’ indicates >50% activity at 10 (μM))”. Take `O=C(Nc1ccc(F)c(Cl)c1)c1ccc(F)c(S(=O)(=O)N2CCC(O)C(F)(F)C2)c1` (stereo not drawn) [Compound 1734]: the “Activity (HBV assembly assay)” value in experiment [1] is “+ (‘+’ indicates >50% activity at about 10 (μM))”. The Activity in dot-blot-assay entry in experiment [2] is reported as “+ (‘+’ indicates >50% activity at 10 (μM))”. For `O=C(Nc1ccc(F)c(Cl)c1)c1ccc(O)c(S(=O)(=O)N2CCC(O)C(F)(F)C2)c1` (stereo not drawn) [Compound 1963], the “Activity (HBV assembly assay)” value in experiment [1] was “+ (‘+’ indicates >50% activity at about 10 (μM))”. The same measure, in the same setting: in the case of `COc1ccc(C(=O)Nc2ccc(F)c(Cl)c2)cc1S(=O)(=O)N1CCC(O)C(F)(F)C1` (stereo not drawn) [Compound 1964] it was “+ (‘+’ indicates >50% activity at about 10 (μM))”; in that of `CCOc1ccc(C(=O)Nc2ccc(F)c(Cl)c2)cc1S(=O)(=O)N1CCC(O)C(F)(F)C1` (stereo not drawn) [Compound 1965], “+ (‘+’ indicates >50% activity at about 10 (μM))”; in that of `O=C(Nc1ccc(F)c(Cl)c1)c1ccc(OC2CC2)c(S(=O)(=O)N2CCC(O)C(F)(F)C2)c1` (stereo not drawn) [Compound 1967], “+ (‘+’ indicates >50% activity at about 10 (μM))”. For `O=C(Nc1ccc(F)c(Cl)c1)c1ccc(CF)c(S(=O)(=O)N2CCC(O)C(F)(F)C2)c1` (stereo not drawn) [Compound 1995], in experiment [1], the “Activity (HBV assembly assay)” value is “+ (‘+’ indicates >50% activity at about 10 (μM))”. Besides, the Activity in dot-blot-assay result in experiment [2] is recorded as “+ (‘+’ indicates >50% activity at 10 (μM))”.
